From ChEMBL document CHEMBL1135260 (Bioorg Med Chem Lett, 2002)

Molecular target: T1, Neuropeptide Y receptor type 5 (Homo sapiens, UniProt Q15761)
T1 sequence (Q15761 whole entry): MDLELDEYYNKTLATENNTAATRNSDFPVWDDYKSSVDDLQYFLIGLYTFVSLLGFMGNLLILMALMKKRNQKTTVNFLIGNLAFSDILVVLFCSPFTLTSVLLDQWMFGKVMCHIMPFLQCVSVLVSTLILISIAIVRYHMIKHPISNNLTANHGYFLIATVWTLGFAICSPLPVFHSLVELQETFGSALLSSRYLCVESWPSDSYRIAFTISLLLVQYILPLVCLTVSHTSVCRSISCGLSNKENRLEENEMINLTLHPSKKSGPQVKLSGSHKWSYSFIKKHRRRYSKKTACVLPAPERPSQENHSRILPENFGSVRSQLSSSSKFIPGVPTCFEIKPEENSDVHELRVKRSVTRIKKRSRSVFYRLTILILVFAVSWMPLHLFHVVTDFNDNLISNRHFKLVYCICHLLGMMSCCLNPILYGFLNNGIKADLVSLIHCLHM
Assay: Concentration that inhibited 50% of binding of 125 I -PYY ligand to human Neuropeptide Y receptor type 5
Assay type: single protein

Compound | IC50 [nM]
c1ccc(-c2nc3c([nH]2)-c2ccccc2CCC3)nc1 | 110
COc1ccc2c(c1)-c1nc(-c3ccccn3)[nH]c1CCC2 | 110
c1ccc2c(c1)CCCc1[nH]c(-c3c[nH]cn3)nc1-2 | 570

The next lines start with the values.

IC50 [nM] | Compound
52 | COc1ccc2c(c1)-c1nc(-c3ccccc3)[nH]c1CC2
6100 | c1ccc(-c2nc3c([nH]2)CCOc2ccccc2-3)cc1
6.4 | Fc1ccc2c(c1)-c1nc(-c3cccnc3)[nH]c1CCC2
427 | Cc1[nH]c(-c2ccccc2)nc1-c1cccnc1 [FR-79620]
